Experimental data taken from the CheMixHub viscosity set.

Test: xn = mol fraction of the nth substance listed

CC1CCCCC1 + CCCCCC
viscosity [mPa·s], 101 kPa
Settings | 293.15 K | 298.15 K | 303.15 K | 308.15 K
x1 = 0.0401 | 0.3176 | 0.3005 | 0.2736 | –
x1 = 0.1041 | – | – | 0.3003 | –
x1 = 0.1042 | – | 0.334 | 0.318 | 0.301
x1 = 0.2002 | 0.3482 | 0.3336 | 0.3072 | –
x1 = 0.202 | – | – | 0.3216 | –
x1 = 0.2026 | – | 0.359 | 0.341 | 0.323
x1 = 0.2772 | 0.3681 | 0.3511 | 0.3256 | –
x1 = 0.3005 | – | – | 0.3476 | –
x1 = 0.301 | – | 0.373 | 0.354 | 0.335
x1 = 0.3562 | 0.3915 | 0.3713 | 0.3477 | –
x1 = 0.3972 | – | – | 0.375 | –
x1 = 0.4018 | – | 0.401 | 0.378 | 0.359
x1 = 0.4196 | 0.4131 | 0.3895 | 0.3654 | –
x1 = 0.5015 | – | – | 0.4074 | –
x1 = 0.5026 | – | 0.433 | 0.41 | 0.387
x1 = 0.5574 | – | – | 0.4286 | –
x1 = 0.5875 | 0.4812 | 0.4512 | 0.4227 | –
x1 = 0.6024 | – | 0.473 | 0.446 | 0.42
x1 = 0.6173 | – | – | 0.4495 | –
x1 = 0.6796 | 0.5261 | 0.49 | 0.46 | –
x1 = 0.7021 | – | 0.517 | 0.487 | 0.457
x1 = 0.7645 | 0.5729 | 0.5323 | 0.5001 | –
x1 = 0.8006 | – | – | 0.5303 | –
x1 = 0.8016 | – | 0.573 | 0.539 | 0.504
x1 = 0.8397 | 0.6187 | 0.5725 | 0.5388 | –
x1 = 0.9002 | – | – | 0.5837 | –
x1 = 0.9011 | – | 0.624 | 0.585 | 0.545
x1 = 0.9198 | 0.6688 | 0.6221 | 0.5865 | –

CCOC(=O)c1ccccc1 + CCCCCC
101 kPa
Settings | viscosity [mPa·s]
298.15 K, x2 = 0.0271 | 1.845
298.15 K, x2 = 0.1115 | 1.528
298.15 K, x2 = 0.1588 | 1.375
298.15 K, x2 = 0.2058 | 1.242
298.15 K, x2 = 0.3029 | 1.008
298.15 K, x2 = 0.3991 | 0.828
298.15 K, x2 = 0.4898 | 0.688
298.15 K, x2 = 0.5921 | 0.57
298.15 K, x2 = 0.6377 | 0.527
298.15 K, x2 = 0.6782 | 0.491
298.15 K, x2 = 0.7316 | 0.456
298.15 K, x2 = 0.773 | 0.426
298.15 K, x2 = 0.8227 | 0.394
298.15 K, x2 = 0.8654 | 0.371
298.15 K, x2 = 0.9101 | 0.354
298.15 K, x2 = 0.9517 | 0.341
303.15 K, x1 = 0.0927 | 0.329
303.15 K, x1 = 0.1853 | 0.38
303.15 K, x1 = 0.2811 | 0.448
303.15 K, x1 = 0.3781 | 0.531
303.15 K, x1 = 0.4761 | 0.634
303.15 K, x1 = 0.5765 | 0.764
303.15 K, x1 = 0.6794 | 0.93
303.15 K, x1 = 0.7852 | 1.147
303.15 K, x1 = 0.8902 | 1.41
308.15 K, x1 = 0.0927 | 0.315
308.15 K, x1 = 0.1853 | 0.366
308.15 K, x1 = 0.2811 | 0.429
308.15 K, x1 = 0.3781 | 0.508
308.15 K, x1 = 0.4761 | 0.603
308.15 K, x1 = 0.5765 | 0.72
308.15 K, x1 = 0.6794 | 0.877
308.15 K, x1 = 0.7852 | 1.065
308.15 K, x1 = 0.8902 | 1.303
308.15 K, x2 = 0.0828 | 1.413
308.15 K, x2 = 0.1328 | 1.29
308.15 K, x2 = 0.171 | 1.201
308.15 K, x2 = 0.2301 | 1.074
308.15 K, x2 = 0.2802 | 0.973
308.15 K, x2 = 0.3274 | 0.887
308.15 K, x2 = 0.3722 | 0.812
308.15 K, x2 = 0.4224 | 0.741
308.15 K, x2 = 0.4708 | 0.677
308.15 K, x2 = 0.5165 | 0.624
308.15 K, x2 = 0.5609 | 0.576
308.15 K, x2 = 0.6066 | 0.533
308.15 K, x2 = 0.6587 | 0.489
308.15 K, x2 = 0.7033 | 0.457
308.15 K, x2 = 0.7489 | 0.426
308.15 K, x2 = 0.7953 | 0.397
308.15 K, x2 = 0.8419 | 0.372
308.15 K, x2 = 0.8794 | 0.356
308.15 K, x2 = 0.9354 | 0.331
313.15 K, x1 = 0.0927 | 0.295
313.15 K, x1 = 0.1853 | 0.346
313.15 K, x1 = 0.2811 | 0.406
313.15 K, x1 = 0.3781 | 0.476
313.15 K, x1 = 0.4761 | 0.562
313.15 K, x1 = 0.5765 | 0.673
313.15 K, x1 = 0.6794 | 0.815
313.15 K, x1 = 0.7852 | 0.99
313.15 K, x1 = 0.8902 | 1.2
318.15 K, x2 = 0.0471 | 1.244
318.15 K, x2 = 0.1005 | 1.133
318.15 K, x2 = 0.149 | 1.036
318.15 K, x2 = 0.2038 | 0.939
318.15 K, x2 = 0.252 | 0.861
318.15 K, x2 = 0.3057 | 0.781
318.15 K, x2 = 0.352 | 0.718
318.15 K, x2 = 0.4057 | 0.652
318.15 K, x2 = 0.4516 | 0.602
318.15 K, x2 = 0.5027 | 0.55
318.15 K, x2 = 0.5475 | 0.51
318.15 K, x2 = 0.5991 | 0.47
318.15 K, x2 = 0.6439 | 0.439
318.15 K, x2 = 0.6933 | 0.41
318.15 K, x2 = 0.7382 | 0.387
318.15 K, x2 = 0.7869 | 0.364
318.15 K, x2 = 0.8296 | 0.346
318.15 K, x2 = 0.878 | 0.327

Cc1cccc([N+](=O)[O-])c1 + CCCCCC
303.15 K, 101.33 kPa
Settings | viscosity [mPa·s]
x1 = 0.199 | 0.38
x1 = 0.416 | 0.58
x1 = 0.591 | 0.77
x1 = 0.802 | 1.11

CC(C)O + CCCCCCC
viscosity [mPa·s], 101 kPa
Settings | x2 = 0.1003 | x2 = 0.2009 | x2 = 0.3009 | x2 = 0.398 | x2 = 0.5002 | x2 = 0.5961 | x2 = 0.6981 | x2 = 0.8014 | x2 = 0.9084
293.15 K | 1.596 | 1.178 | 0.9242 | 0.7437 | 0.6223 | 0.5479 | 0.493 | 0.4607 | 0.436
298.15 K | 1.413 | 1.044 | 0.8165 | 0.6851 | 0.5866 | 0.5025 | 0.4623 | 0.4268 | 0.4025
303.15 K | 1.23 | 0.927 | 0.7388 | 0.62 | 0.5333 | 0.4679 | 0.4351 | 0.4137 | 0.3897
308.15 K | 1.091 | 0.8401 | 0.6728 | 0.577 | 0.4915 | 0.4441 | 0.4083 | 0.3805 | 0.3637

CC1CCCCC1 + CCCCCCC
viscosity [mPa·s]
Settings | 293.15 K | 298.15 K | 303.15 K | 308.15 K | 323.15 K
100 kPa, x1 = 0.125 | – | – | 0.389 | – | 0.317
100 kPa, x1 = 0.25 | – | – | 0.411 | – | 0.335
100 kPa, x1 = 0.375 | – | – | 0.436 | – | 0.354
100 kPa, x1 = 0.5 | – | – | 0.465 | – | 0.375
100 kPa, x1 = 0.625 | – | – | 0.498 | – | 0.4
100 kPa, x1 = 0.75 | – | – | 0.538 | – | 0.43
100 kPa, x1 = 0.875 | – | – | 0.585 | – | 0.466
101 kPa, x1 = 0.0405 | 0.4128 | 0.3963 | 0.368 | – | –
101 kPa, x1 = 0.1021 | – | 0.411 | 0.391 | 0.371 | –
101 kPa, x1 = 0.1996 | 0.4451 | 0.4235 | 0.4003 | – | –
101 kPa, x1 = 0.2033 | – | 0.432 | 0.41 | 0.389 | –
101 kPa, x1 = 0.281 | 0.4637 | 0.4402 | 0.4162 | – | –
101 kPa, x1 = 0.3044 | – | 0.451 | 0.427 | 0.403 | –
101 kPa, x1 = 0.3593 | 0.4826 | 0.4568 | 0.4317 | – | –
101 kPa, x1 = 0.4036 | – | 0.473 | 0.449 | 0.422 | –
101 kPa, x1 = 0.4393 | 0.5042 | 0.474 | 0.4476 | – | –
101 kPa, x1 = 0.5029 | – | 0.497 | 0.47 | 0.443 | –
101 kPa, x1 = 0.6003 | 0.5514 | 0.5153 | 0.4887 | – | –
101 kPa, x1 = 0.6033 | – | 0.526 | 0.496 | 0.467 | –
101 kPa, x1 = 0.6793 | 0.5802 | 0.5399 | 0.512 | – | –
101 kPa, x1 = 0.7038 | – | 0.556 | 0.524 | 0.492 | –
101 kPa, x1 = 0.76 | 0.6141 | 0.571 | 0.5395 | – | –
101 kPa, x1 = 0.8022 | – | 0.591 | 0.557 | 0.522 | –
101 kPa, x1 = 0.84 | 0.6483 | 0.6042 | 0.5687 | – | –
101 kPa, x1 = 0.9006 | – | 0.625 | 0.589 | 0.553 | –
101 kPa, x1 = 0.9074 | 0.6821 | 0.6347 | 0.5964 | – | –
